Data from publication PMC4908816 (Molecular microbiology, 2016).
Several values for one entry are separate records, joined by “and”; a condition that tells them apart may be missing. Equal values may be shown once.

What was measured:
[1] = test system: R388-mediated conjugation; details: cited from earlier work; for inhibition of bacterial conjugation: ref Getino et al., 2015; for inhibition of bacterial conjugation in vivo assays: ref Fernández-Lopez et al., 2005
TrwD [2] = molecular target: T1, TrwD (Escherichia coli, UniProt O50338); experiment: ATP hydrolysis assay; format: biochemical, conjugative plasmid R388; details: for K0.5 ATP of TrwD in the presence of fatty acid / mechanism of inhibition of TrwD ATP hydrolysis: 21 μM linoleic acid or 30 μM 2-HDA; for K0.5 ATP of TrwD in the presence of fatty acid: 44 μM in the absence of fatty acids; for mechanism of inhibition of TrwD ATP hydrolysis: increasing ATP; for effect on Vmax of TrwD ATP hydrolysis: compound at its Ki[app] (21 μM linoleic acid, 30 μM 2-HDA); for inhibition (reduction) of TrwD ATPase activity: 50 μM fatty acid
[3] = test system: R388 transfer (bacterial conjugation); experiment: High-throughput conjugation assay; format: cell-based; details: 500 μM compound (Fig. 3A), E. coli DH5α donor, BL21(DE3) recipient
TrwD [4] = molecular target: T1, TrwD; experiment: Partial proteolysis of TrwD by papain; parameters: species or system conjugative plasmid R388; details: 1:10 to 1:100 TrwD:2-HDA or 1:100 TrwD:palmitic acid molar ratio; 90 min, 25 °C
TrwK = TrwK (Escherichia coli, UniProt O50330); experiment: ATP hydrolysis assay; format: biochemical, conjugative plasmid R388; details: 50 μM linoleic acid; ATPase 2 μM
TrwC = experiment: ATP hydrolysis assay; format: biochemical, conjugative plasmid R388; details: 50 μM linoleic acid; ATPase 2 μM
TrwB = TrwB (Escherichia coli, UniProt Q04230); experiment: ATP hydrolysis assay; format: biochemical, conjugative plasmid R388; details: 50 μM linoleic acid; ATPase 2 μM

T1 sequence (O50338 1-358): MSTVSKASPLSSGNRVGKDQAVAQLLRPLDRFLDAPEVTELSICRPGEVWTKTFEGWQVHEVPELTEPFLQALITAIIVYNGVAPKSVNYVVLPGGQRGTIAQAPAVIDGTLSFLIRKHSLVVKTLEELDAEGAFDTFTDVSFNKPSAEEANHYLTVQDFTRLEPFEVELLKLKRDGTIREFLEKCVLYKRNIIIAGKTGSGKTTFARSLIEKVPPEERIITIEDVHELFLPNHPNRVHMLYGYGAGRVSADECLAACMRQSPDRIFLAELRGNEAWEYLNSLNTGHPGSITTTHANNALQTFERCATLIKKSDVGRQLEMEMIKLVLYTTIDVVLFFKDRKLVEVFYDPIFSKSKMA

SMILES	inhibition of bacterial conjugation [1]	Ki (TrwD [2]) [µM]	inhibition of bacterial conjugation in vivo assays [1]	inhibition (reduction) of TrwD ATPase activity (TrwD [2]; TrwD 2 μM)	also measured
CCCCCCCCCC#CCCC#CC(=O)O [2,6-HDA, 2,6 hexadecadiynoic acid]	more effective in inhibiting bacterial conjugation	43.8 ± 2.8			inhibition of bacterial conjugation [3]: efficient conjugation inhibitors
CCCCCCCCCCCCCC#CC(=O)O [2-HDA, 2-hexadecynoic acid]	more effective in inhibiting bacterial conjugation	29.7 ± 2.1			K0.5 ATP of TrwD in the presence of fatty acid (TrwD [2]; TrwD 2 μM): 66 µM; mechanism of inhibition of TrwD ATP hydrolysis (TrwD [2]): non-competitive; Kd ADP of TrwD in the presence of fatty acid (TrwD [2]; 30 μM 2-HDA, TrwD 2 μM, control without 2-HDA 45.1 ± 4.1 μM): 51 µM and 51.7 ± 9.8 µM; effect on Vmax of TrwD ATP hydrolysis (TrwD [2]): reduced by half; susceptibility of TrwD to papain digestion (TrwD [4]): high susceptibility to papain degradation
CCCCCCCCCCCCCCCC#CC(=O)O [2-ODA, 2-octadecynoic acid]	more effective in inhibiting bacterial conjugation	29.8 ± 4.1			inhibition of bacterial conjugation [3]: efficient conjugation inhibitors
CCCCCCCCCCCC(=O)O [Lauric acid]			unable to inhibit significantly	no inhibition was observed	
CCCCCCCCCCCCCCCC(=O)O [Palmitic acid]			unable to inhibit significantly	no inhibition was observed	susceptibility of TrwD to papain digestion (TrwD [4]): did not affect the susceptibility
CCCCC/C=C\C/C=C\CCCCCCCC(=O)O [linoleic acid]		20.9 ± 1.6	effective inhibitors of bacterial conjugation		effect on TrwK ATPase activity (TrwK): no significant effect; effect on TrwC ATPase activity (TrwC): no significant effect; K0.5 ATP of TrwD in the presence of fatty acid (TrwD [2]; TrwD 2 μM): 44 µM; mechanism of inhibition of TrwD ATP hydrolysis (TrwD [2]): non-competitive; effect on Vmax of TrwD ATP hydrolysis (TrwD [2]): reduced by half; effect on TrwB ATPase activity (TrwB): no significant effect
CCCCCCCC/C=C\CCCCCCCC(=O)O [oleic acid]			effective inhibitors of bacterial conjugation	more than 90%	
